# Test results from BindingDB's records for doi:10.7270/Q2MW2FMC (Nmmlsc, 2011).
# Target: T1, Ammonium transporter MEP2 (Saccharomyces cerevisiae (strain ATCC 204508 / S288c), UniProt P41948)
# T1 sequence (P41948 whole entry): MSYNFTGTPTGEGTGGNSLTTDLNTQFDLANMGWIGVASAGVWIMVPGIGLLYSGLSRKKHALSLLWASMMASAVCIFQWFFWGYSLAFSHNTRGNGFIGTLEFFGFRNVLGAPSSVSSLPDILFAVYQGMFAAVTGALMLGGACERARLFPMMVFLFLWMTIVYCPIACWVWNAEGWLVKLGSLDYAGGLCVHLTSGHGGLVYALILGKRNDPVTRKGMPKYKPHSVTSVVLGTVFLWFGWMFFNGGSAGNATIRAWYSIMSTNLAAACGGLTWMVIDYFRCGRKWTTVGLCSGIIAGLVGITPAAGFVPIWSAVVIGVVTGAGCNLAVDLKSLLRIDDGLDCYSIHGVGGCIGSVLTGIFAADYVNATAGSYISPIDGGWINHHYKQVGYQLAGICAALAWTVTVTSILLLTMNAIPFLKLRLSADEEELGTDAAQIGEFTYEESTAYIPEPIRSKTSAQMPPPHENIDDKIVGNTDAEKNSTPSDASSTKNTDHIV
# Assay: MEP2-GFP fusion level modulators in yeast, SAR follow-up, S. cerevisiae, multiplex GFP fusions, cherry pick 3 (AID 488812)
# Conditions: inactive by the depositor's call
row,EC50 [µM],Structure (SMILES)
1,74.4,Nc1ncnc(Nc2cc(Cl)cc(Cl)c2)c1[N+](=O)[O-] [MLS000581561]
2,68.2,CCOC(=O)CS(=O)(=O)c1nc(-c2ccccc2)cc(C(F)(F)F)n1 [2-[4-phenyl-6-(trifluoromethyl)pyrimidin-2-yl]sulfonylacetic acid ethyl ester]
3,36100,Oc1c(Cl)cc(Cl)c2cccnc12 [AS-229]
